According to patent US6358699B1, “Assay for asymmetrical NG, NG dimethyl-l-arginine” (Cooke Pharma, priority 1999, dated 2002):

Target: DDAH (Rattus norvegicus, UniProt O08557)
Test: DDAH activity toward ADMA versus SDMA
Format: biochemical
Conditions: ADMA versus SDMA as substrate
Text: DDAH, however, has at least 1000-fold higher activity toward ADMA than SDMA, and is therefore uniquely suited for use in an enzymatic assay for unequivocal measurement of ADMA in complex mixtures. Nevertheless an enzymatic ADMA assay using DDAH is problematical because of a number of interfering components in blood. Importantly, citrulline is present in blood, so that it would provide a large background which would substantially diminish the accuracy of an assay where citrulline is the final product which is determined as a measure of the amount of ADMA in the sample. In addition, urea which is also present in blood cross-reacts in the citrulline assay. Finally, porphyrins in blood interfere with the spectrophotometric determination of citrulline. In order to have an enzymatic assay using DDAH, it is essential to prevent these various blood components from interfering with the assay.

DDAH, sequence (O08557 whole entry): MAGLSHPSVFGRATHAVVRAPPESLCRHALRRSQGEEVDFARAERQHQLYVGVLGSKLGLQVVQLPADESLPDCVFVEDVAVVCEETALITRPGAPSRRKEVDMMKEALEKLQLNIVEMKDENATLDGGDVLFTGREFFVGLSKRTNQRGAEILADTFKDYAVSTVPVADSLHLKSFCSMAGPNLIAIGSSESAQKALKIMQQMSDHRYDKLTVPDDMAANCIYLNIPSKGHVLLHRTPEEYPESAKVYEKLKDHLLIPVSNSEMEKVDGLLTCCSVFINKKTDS

DDAH activity toward ADMA relative to SDMA: at least 1000 fold
SMILES: CN(C)C(N)=NCCC[C@H](N)C(=O)O [ADMA, asymmetric dimethylarginine]
